Reference: patent publication US8183279B2, “1,3-dihydroisoindole derivatives” (Merck Patent Gesellschaft Mit Beschrankter Haftung, priority 2007, dated 2012)
pIC50: −log10 of the molar value.

Molecular target: T1, Recombinant human HSP90α (Homo sapiens, UniProt P07900)
T1 construct: host or cells: E. coli
Test: HSP90 inhibition, [3H]17AAG radioligand filter binding test
Conditions: competition with 0.08 μM [3H]17AAG, HSP90 1.5 μg/assay, 22° C., 30 min
Description: The binding of geldanamycin or 17-allylamino-17-demethoxygeldanamycin (17AAG) to HSP90 and competitive inhibition thereof can be utilised in order to determine the inhibitory activity of the compounds according to the invention (Carreras et al. 2003, Chiosis et al. 2002).
In the specific case, a radioligand filter binding test is used. The radioligand used here is tritium-labelled 17-allylaminogeldanamycin,
[3H]17AAG. This filter binding test allows a targeted search for inhibitors which interfere with the ATP binding site.
Recombinant human HSP90α(E. coli expressed, 95% purity);
[3H]17AAG (17-allylaminogeldanamycin, [allylamino-2,3-^3H. Specific activity: 1.11×10^12 Bq/mmol (Moravek, MT-1717);
HEPES filter buffer (50 mM HEPES, pH 7.0, 5 mM MgCl2, BSA 0.01%) Multiscreen FB (1 μm) filter plate (Millipore, MAFBNOB 50).
The 96-well microtitre filter plates are firstly irrigated and coated with 0.1% of polyethylenimine.
The test is carried out under the following conditions:
Reaction temperature 22° C.
Reaction time: 30 min., shaking at 800 rpm
50 mM HEPES HCl, pH 7.0, 5 mM MgCl2, 0.01% (w/v) of BSA
At the end of the reaction, the supernatant in the filter plate is removed by suction with the aid of a vacuum manifold (Multiscreen Separation System, Millipore), and the filter is washed twice.
The filter plates are then measured in a beta counter (Microbeta, Wallac) with scintillator (Microscint 20, Packard).
“% of control” is determined from the “counts per minutes” values, and the IC-50 value of a compound is calculated therefrom.

Compound | pIC50
CCCCN(C)C(=O)c1cc(C(=O)N2Cc3ccc(O)cc3C2)c(O)cc1O [Compound A1, N-butyl-2,4-dihydroxy-5-(5-hydroxy-1,3-dihydroisoindole-2-carbonyl)-N-methylbenzamide] | 6.00 to 8.00
CCCCN(C)C(=O)c1cc(C(=O)N2Cc3ccccc3C2)c(O)cc1O [Compound A2, N-butyl-2,4-dihydroxy-5-(1,3-dihydroisoindole-2-carbonyl)-N-methylbenzamide] | 6.00 to 8.00
CCCCN(C)C(=O)c1cc(C(=O)N2Cc3ccc(OCCN(C)C)cc3C2)c(O)cc1O [Compound A3, N-butyl-5-[5-(2-dimethylaminoethoxy)-1,3-dihydroisoindole-2-carbonyl]-2,4-dihydroxy-N-methylbenzamide] | 6.00 to 8.00
CCCCN(C)C(=O)c1cc(C(=O)N2Cc3ccc(OCCN4CCOCC4)cc3C2)c(O)cc1O [Compound A6] | 6.00 to 8.00
CCCCN(C)C(=O)c1cc(C(=O)N2Cc3ccc(OCCN4CCNCC4)cc3C2)c(O)cc1O [Compound A7] | 6.00 to 8.00
CCCCN(C)C(=O)c1cc(C(=O)N2Cc3ccc(OCCN4CCCCC4)cc3C2)c(O)cc1O [Compound A8] | 6.00 to 8.00
CCCCN(C)C(=O)c1cc(C(=O)N2Cc3ccc(OCC(N)=O)cc3C2)c(O)cc1O [Compound A32, N-Butyl-5-(5-carbamoylmethoxy-1,3-dihydroisoindole-2-carbonyl)-2,4-dihydroxy-N-methylbenzamide] | 6.00 to 8.00
CCCCN(C)C(=O)c1cc(C(=O)N2Cc3ccc(OCCCC#N)cc3C2)c(O)cc1O [Compound A33, N-Butyl-5-[5-(3-cyanopropoxy)-1,3-dihydroisoindole-2-carbonyl]-2,4-dihydroxy-N-methylbenzamide] | 6.00 to 8.00
CCCCN(C)C(=O)c1cc(C(=O)N2Cc3ccc(OCCO)cc3C2)c(O)cc1O [Compound A34, N-Butyl-2,4-dihydroxy-5-[5-(2-hydroxyethoxy)-1,3-dihydroisoindole-2-carbonyl]-N-methylbenzamide] | 6.00 to 8.00
CCCCN(C)C(=O)c1cc(C(=O)N2Cc3ccc(OCCNC)cc3C2)c(O)cc1O [Compound A35, N-Butyl-2,4-dihydroxy-N-methyl-5-[5-(2-methylaminoethoxy)-1,3-dihydroisoindole-2-carbonyl]benzamide] | 6.00 to 8.00
CCCCN(C)C(=O)c1cc(C(=O)N2Cc3ccc(-c4ccccc4)cc3C2)c(O)cc1O [Compound A38, N-Butyl-2,4-dihydroxy-N-methyl-5-(5-phenyl-1,3-dihydroisoindole-2-carbonyl)benzamide] | 6.00 to 8.00
CCCCN(C)C(=O)c1cc(C(=O)N2Cc3ccc(C(=O)OC)cc3C2)c(O)cc1O [Compound A39, Methyl 2-[5-(butylmethylcarbamoyl)-2,4-dihydroxybenzoyl]-2,3-dihydro-1H-isoindole-5-carboxylate] | 6.00 to 8.00
CCCCN(C)C(=O)c1cc(C(=O)N2Cc3ccc(OCCN(C)CC)cc3C2)c(O)cc1O [Compound A40, N-Butyl-5-{5-[2-(ethylmethylamino)ethoxy]-1,3-dihydroisoindole-2-carbonyl}-2,4-dihydroxy-N-methylbenzamide] | 6.00 to 8.00
CCCCN(C)C(=O)c1cc(C(=O)N2Cc3ccc(C(=O)N(C)C)cc3C2)c(O)cc1O [Compound A41, N,N'-Dimethyl-2-[5-(butylmethylcarbamoyl)-2,4-dihydroxybenzoyl]-2,3-dihydro-1H-isoindole-5-carboxamide] | 6.00 to 8.00
CCCCN(C)C(=O)c1cc(C(=O)N2Cc3ccc(C(N)=O)cc3C2)c(O)cc1O [Compound A42] | 6.00 to 8.00
Cc1ccc(CN(C)C(=O)c2cc(C(=O)N3Cc4ccc(OCCN(C)C)cc4C3)c(O)cc2O)s1 [Compound A43, 5-[5-(2-Dimethylaminoethoxy)-1,3-dihydroisoindole-2-carbonyl]-2,4-dihydroxy-N-methyl-N-(5-methylthiophen-2-ylmethyl)benzamide] | 6.00 to 8.00
CN(C)CCOc1ccc2c(c1)CN(C(=O)c1cc(C(=O)N(C)Cc3ccco3)c(O)cc1O)C2 [Compound A44, 5-[5-(2-Dimethylaminoethoxy)-1,3-dihydroisoindole-2-carbonyl]-N-furan-2-ylmethyl-2,4-dihydroxy-N-methylbenzamide] | 6.00 to 8.00
CN(C)CCOc1ccc2c(c1)CN(C(=O)c1cc(C(=O)N(C)Cc3ccccc3)c(O)cc1O)C2 [Compound A45, N-Benzyl-5-[5-(2-dimethylaminoethoxy)-1,3-dihydroisoindole-2-carbonyl]-2,4-dihydroxy-N-methylbenzamide] | 6.00 to 8.00
CN(C)CCOc1ccc2c(c1)CN(C(=O)c1cc(C(=O)N3Cc4ccccc4C3)c(O)cc1O)C2 [Compound A46, [5-(1,3-Dihydroisoindole-2-carbonyl)-2,4-dihydroxyphenyl]-[5-(2-dimethylaminoethoxy)-1,3-dihydroisoindol-2-yl]methanone] | 6.00 to 8.00
CCCCN(C)C(=O)c1cc(C(=O)N2Cc3ccc(OCCCNC)cc3C2)c(O)cc1O [Compound A47, N-Butyl-2,4-dihydroxy-N-methyl-5-[5-(3-methylaminopropoxy)-1,3-dihydroisoindole-2-carbonyl]benzamide] | 6.00 to 8.00
CNCCOc1ccc2c(c1)CN(C(=O)c1cc(C(=O)N(C)Cc3ccc(C)s3)c(O)cc1O)C2 [Compound A48, 2,4-Dihydroxy-N-methyl-5-[5-(2-methylaminoethoxy)-1,3-dihydroisoindole-2-carbonyl]-N-(5-methylthiophen-2-ylmethyl)benzamide] | 6.00 to 8.00
CNCCOc1ccc2c(c1)CN(C(=O)c1cc(C(=O)N(C)Cc3ccco3)c(O)cc1O)C2 [Compound A49, N-Furan-2-ylmethyl-2,4-dihydroxy-N-methyl-5-[5-(2-methylaminoethoxy)-1,3-dihydroisoindole-2-carbonyl]benzamide] | 6.00 to 8.00
